Patent US11433019B2, “Ganoderma lucidum extract-preparing method using eco-friendly extraction technique, Ganoderma lucidum extract prepared thereby, and anti-aging cosmetic composition comprising same extract” (AMOREPACIFIC CORPORATION, priority 2017, dated 2022)

How the values were obtained:
[1] = tested on: matrix metalloprotease-1 (MMP-1); test: MMP-1 inhibitory effect: free MMP-1 in media of UV-irradiated HS68 fibroblasts (kit, Amersham RPN2610); assay type: cell-based; conditions: 5 μM, UV 30 mJ, treated twice for 48 hours, corrected with control without test substance
Experimental: In order to confirm the inhibitory effect of Ganoderma lucidum extracts extracted with the aqueous cyclodextrin solution according to the present disclosure on matrix metalloprotease-1 (MMP-1) expression increased by ultraviolet rays, fibroblasts cells (HS68) were seeded at a concentration of 0.75*10^5 in each well of a 12 well plate and made to be a starvation state for 24 hours, then washed with phosphate buffered saline and irradiated with UV (30 mJ). Subsequently, as a positive control, 1, 10, and 50 ppm of Ganoderma lucidum extracts extracted with 5 μM of retinoic Acid (RA) and an aqueous cyclodextrin solution were treated twice for 48 hours, and the amount of free MMP-1 in the media was measured using a kit (Amersham, RPN2610).

collagenase = test: Collagenase production/expression in human fibroblasts (antibody-based absorbance at 405 nm); assay type: cell-based; conditions: 5 μM, 24 hours, untreated group = 100
Experimental: The inhibitory ability of Ganoderma lucidum extracts extracted with the aqueous cyclodextrin solution according to the present disclosure on collagenase production was measured in comparison with retinoic acid. Human fibroblasts were added at 5,000 cells/well in a 96-well microtiter plate containing Dulbecco's Modified Eagle's Media (DMEM) medium containing 2.5% fetal bovine serum and incubated in an incubator (5% CO2, 37° C.) until the growth reached 70 to 80%. Then, the Ganoderma lucidum extracts, which were extracted using the 1% β-CD aqueous cyclodextrin solution in combination with ultrasonic extraction, were treated with the cells at a concentration of 100 μg/ml for 24 hours, and then the cell culture solution was collected.
Then, the degree of collagenase production in the thus-collected cell culture solution was measured using a commercially available collagenase measuring instrument (GE Healthcare Life Sciences). […]
The absorbance of the yellowish 96-well plate was measured at 405 nm using an absorptiometer, and the expression level of collagenase was calculated by Calculation Equation 1 below. In particular, the reaction absorbance of the collected cell culture solution in the untreated group was taken as the absorbance of the control group. […]
A: Absorbance of the test substance-treated cell group
B: Absorbance of control group […]

CC1=C(/C=C/C(C)=C/C=C/C(C)=C/C(=O)O)C(C)(C)CCC1 [Retinoic acid, retinoic Acid]
Extracellular MMP-1 (% of control) [1]: 66.2% of control
Degree of Collagenase Expression (%) (collagenase): 75.0%
